{"source": "patent US20130281304A1", "about": "“Comprehensive Methylome Map of Myeloid and Lymphoid Commitment from Hematopoietic Proenitors” (priority 2010, published 2013)", "system": "hematopoietic progenitors (MPP^FL+, CLP, DN1, DN2, DN3)", "test": "OP9:OP9DL1 stromal co-cultures, myeloid versus lymphoid progeny by flow cytometry", "type": "cell-based, mouse", "settings": "50 nM; for myeloid versus lymphoid progeny: DN3 progenitors; for myeloid versus lymphoid progeny / percentage of myeloid progeny versus lymphoid progeny: 6 days after plating on OP9:OP9DL1 stroma; for percentage of myeloid progeny versus lymphoid progeny: MPP^FL+, CLP, DN1 and DN2 progenitors", "from_the_text": "FIG. 6 is a series of graphical representations of FACS plots and quantitation of myeloid versus lymphoid progeny. FIG. 6a are representative FACS plots of progeny from hematopoietic progenitors 6 days after plating on OP9:OP9DL1 stroma in the presence or absence of 5-aza-2′deoxycytidine. […] FIG. 6b is a histogram depicting quantitation of myeloid versus lymphoid progeny. The percentage of myeloid versus lymphoid progeny, as defined above, were quantified for each well from the experiment in a. Each bar represents the average of triplicate wells, and the error bars are the standard deviations between wells.\nOP9:OP9DL1 stromal co-cultures. 3000 OP9 and 3000 OP9DL1 cells were plated in each well of 96 well plates in MEMa+10% FBS. The next day, 50 double-sorted progenitors were plated per well in the presence of 5 ng/ml IL-7 and F1t3L, and 10 ng/ml IL-3, IL-6, M-CSF, GM-CSF, and G-CSF (PeproTech). 50 nM 5-aza-2′-deoxycytide (Sigma) or vehicle (50% acetic acid) was added to the wells as indicated. At day 3, half of the media plus cytokines and drugs was replaced. At day 6, progeny from each well were stained and analyzed by flow cytometry to identify lymphoid versus myeloid progeny.\nTo test the hypothesis that reduced methylation preferentially promotes myeloid as opposed to lymphoid differentiation, an in vitro assay system that promotes both myeloid and lymphoid development was used (as in Engel et al., Epigenetics. 2009;4:98-99 and Bell et al., Nature. 2008;452:764-767). […] It evident that inhibiting DNA methylation promotes myeloid versus lymphoid specification, providing a mechanism for the myeloid skewing observed in Dnmt1 hypomorphs.", "key": {"[1]": {"settings": "listed as 5-aza-2′deoxycytidine"}}}
{"smiles": "Nc1ncn([C@H]2C[C@H](O)[C@@H](CO)O2)c(=O)n1", "note": "[5-aza-2′-deoxycytidine]", "values": [{"measurement": "myeloid skewing, compared between progenitor populations", "setting": "DN1 cells, 6 days", "value": "most pronounced in DN1 cells"}, {"measurement": "myeloid versus lymphoid progeny", "value": "remained lymphoid committed"}, {"measurement": "myeloid versus lymphoid progeny", "setting": "[1]", "value": "continued to generate an exclusively lymphoid readout"}, {"measurement": "cell expansion", "setting": "DN3 wells, 6 days", "value": "inhibited cell expansion"}, {"measurement": "percentage of myeloid progeny versus lymphoid progeny", "value": "increased at the expense of lymphoid progeny"}, {"measurement": "percentage of myeloid progeny versus lymphoid progeny", "setting": "[1]", "value": "trended towards generating more myeloid progeny"}]}
